Values quoted from earlier work, collected in patent publication US11975079B2, “Truncated Evans Blue modified fibroblast activation protein inhibitor, preparation method and application thereof” (YANTAI LANNACHENG BIOTECHNOLOGY CO., LTD., priority 2021, dated 2024).

decrease of retained dose at tumor site (24 hours later): about 75%
SMILES: N#C[C@@H]1CCCN1C(=O)CNC(=O)c1ccnc2ccc(OCCCN3CCN(C(=O)CN4CCN(CC(=O)O)CCN(CC(=O)O)CCN(CC(=O)O)CC4)CC3)cc12 [FAPI-02]
clearance in blood circulation (according to current reports): completely cleared in blood circulation within one hour
